Results: patent US8981111B2 (priority 2008, dated 2015)

Test: log P (HPLC/MS data of the preparation examples)
Settings: LC-MS, method [b]: pH 2.7 with 0.1% formic acid in water and acetonitrile, linear gradient 10% to 95% acetonitrile

SMILES | log p
Cn1cncc1C(=NOCc1nccc(NC(=O)C(C)(C)C)n1)c1ccccc1 [Example 99] | 1.76^[b]
Cn1ncnc1C(=NOCc1csc(NC(=O)C(C)(C)C)n1)c1ccccc1 [Example 101] | 2.92^[b]
Cn1c(C(=NOCc2nccc(NC(=O)C(C)(C)C)n2)c2ccccc2)cnc1C(=O)C(C)(C)C [Example 102] | 4.84^[b]
CC(C)C=C(OC(=O)CC(C)C)c1ncc(C(=NOCc2nccc(NC(=O)CC(C)C)n2)c2ccccc2)n1C [Example 103] | 4.04^[b]
Cn1cncc1C(=NOCc1nccc(N(C(=O)C2CC2)C(=O)C2CC2)n1)c1ccccc1 [Example 104] | 1.75^[b]
CCCCCCCOC(=O)Nc1cccc(CON=C(c2ccccc2)c2ncnn2C)n1 [Example 106] | 4.86^[b]
Cn1ncnc1C(=NOCc1cccc(NC(=O)CCc2ccccc2)n1)c1ccccc1 [Example 107] | 3.33^[b]
CC(C)C(=O)Nc1ccnc(CON=C(c2ccccc2)c2cnc(C(=O)C(C)C)n2C)n1 [Example 109] | 3.62^[b]
CC(C)=C(OC(=O)C(C)C)c1ncc(C(=NOCc2nccc(NC(=O)C(C)C)n2)c2ccccc2)n1C [Example 110] | 2.77^[b]
Cn1cncc1C(=NOCc1csc(N)n1)c1ccccc1 [Example 111] | 0.69^[b]
CC(C)CC(=O)Nc1ccnc(CON=C(c2ccccc2)c2cncn2C)n1 [Example 112] | 1.99^[b]
CCCCCOC(=O)N(C)c1cccc(CON=C(c2ccccc2)c2ncnn2C)n1 [Example 113] | 4.39^[b]
CCCCCOC(=O)Nc1ccnc(CON=C(c2ccccc2)c2cncn2C)n1 [Example 115] | 2.66^[b]
CCCCCC(=O)Nc1nc(CON=C(c2ccccc2)c2cncn2C)cs1 [Example 116] | 2.08^[b]
Cn1cncc1C(=NOCc1csc(NC(=O)C(C)(C)C)n1)c1ccccc1 [Example 117] | 1.84^[b]
CC(C)CC(=O)Nc1nc(CON=C(c2ccccc2)c2cncn2C)cs1 [Example 118] | 1.84^[b]

SMILES | log p
CC(C)C(=O)Nc1nc(CON=C(c2ccccc2)c2cncn2C)cs1 [Example 119] | 1.63^[b]
CCCCCC(=O)Nc1cccc(CON=C(c2ccccc2)c2cncn2C)n1 [Example 120] | 2.11^[b]
CC(C)CC(=O)Nc1cccc(CON=C(c2ccccc2)c2cncn2C)n1 [Example 121] | 1.84^[b]
CC(C)C(=O)Nc1ccnc(CON=C(c2ccccc2)c2cncn2C)n1 [Example 124] | 1.49^[b]
CC(C)C(=O)Nc1cccc(CON=C(c2ccccc2)c2cncn2C)n1 [Example 125] | 1.63^[b]
Cn1cncc1C(=NOCc1csc(NC(=O)COc2ccccc2)n1)c1ccccc1 [Example 127] | 2.01^[b]
CCCCC(=O)Nc1ccnc(CON=C(c2ccccc2)c2cncn2C)n1 [Example 128] | 1.75^[b]
CCCC(=O)Nc1ccnc(CON=C(c2ccccc2)c2cncn2C)n1 [Example 129] | 1.5^[b]
CCCCCCC(=O)Nc1ccnc(CON=C(c2ccccc2)c2cncn2C)n1 [Example 130] | 2.2^[b]
CCCCCCCCCC(=O)Nc1ccnc(CON=C(c2ccccc2)c2cncn2C)n1 [Example 131] | 2.98^[b]
Cn1cncc1C(=NOCc1nccc(NC(=O)COc2ccccc2)n1)c1ccccc1 [Example 132] | 1.86^[b]
Cn1ccnc1C(=NOCc1csc(N)n1)c1ccccc1 [Example 133] | 0.75^[b]
Cn1ncnc1C(=NOCc1cccc(CNC(=O)CCc2ccccc2)n1)c1ccccc1 [Example 134] | 2.56^[b]
CCCCC(=O)NCc1cccc(CON=C(c2ccccc2)c2ncnn2C)n1 [Example 135] | 2.28^[b]
CC(C)CC(=O)NCc1cccc(CON=C(c2ccccc2)c2ncnn2C)n1 [Example 136] | 2.23^[b]
Cn1ncnc1C(=NOCc1cccc(CNC(=O)C(C)(C)C)n1)c1ccccc1 [Example 137] | 2.28^[b]

Same assay, conditions: method [b]: LC-MS at pH 2.7, 0.1% formic acid in water / acetonitrile, linear gradient 10% to 95% acetonitrile

SMILES | log p
Cn1ncnc1C(=NOCc1cccc(CNC(=O)Cc2ccccc2)n1)c1ccccc1 [Example 138] | 2.44^[b]
CCCCCC(=O)NCc1cccc(CON=C(c2ccccc2)c2ncnn2C)n1 [Example 140] | 2.62^[b]
CCCCOC(=O)NCc1cccc(CON=C(c2ccccc2)c2ncnn2C)n1 [Example 141] | 2.84^[b]
Cn1nc(C(=NOCc2cccc(N3C(=O)c4ccccc4C3=O)n2)c2ccccc2)n(C)c1=O [Example 142] | 2.66^[b]
Cn1cnnc1C(=NOCc1cccc(N2C(=O)c3ccccc3C2=O)n1)c1ccccc1 [Example 144] | 2.3^[b]
CCCCCOC(=O)Nc1cccc(CON=C(c2ccccc2)c2nn(C)c(=O)n2C)n1 [Example 146] | 3.8^[b]
Cn1nc(C(=NOCc2cccc(NC(=O)C(C)(C)C)n2)c2ccccc2)n(C)c1=O [Example 147] | 2.86^[b]
CC(C)CC(=O)Nc1cccc(CON=C(c2ccccc2)c2nn(C)c(=O)n2C)n1 [Example 148] | 2.82^[b]
Cn1nc(C(=NOCc2cccc(NC(=O)Cc3ccccc3)n2)c2ccccc2)n(C)c1=O [Example 149] | 2.94^[b]
Cn1nc(C(=NOCc2cccc(NC(=O)CCc3ccccc3)n2)c2ccccc2)n(C)c1=O [Example 150] | 3.19^[b]
Cn1nc(C(=NOCc2cccc(NC(=O)CC(F)(F)F)n2)c2ccccc2)n(C)c1=O [Example 151] | 2.66^[b]
Cn1nc(C(=NOCc2cccc(NC(=O)c3cccs3)n2)c2ccccc2)n(C)c1=O [Example 152] | 2.82^[b]
Cn1nc(C(=NOCc2cccc(NC(=O)CCC3CCCC3)n2)c2ccccc2)n(C)c1=O [Example 153] | 3.71^[b]
Cn1ccnc1C(=NOCc1nccc(NC(=O)C2CC2)n1)c1ccccc1 [Example 154] | 1.5^[b]
Cn1ccnc1C(=NOCc1nccc(NC(=O)Cc2ccccc2)n1)c1ccccc1 [Example 155] | 2.01^[b]
Cn1cnnc1C(=NOCc1cccc(N)n1)c1ccccc1 [Example 156] | 0.88^[b]
CCCCCOC(=O)Nc1cccc(CON=C(c2ccccc2)c2nncn2C)n1 [Example 157] | 3.29^[b]
Cn1cnnc1C(=NOCc1cccc(NC(=O)Cc2ccccc2)n1)c1ccccc1 [Example 158] | 2.56^[b]
CC(C)COC(=O)Nc1cccc(CON=C(c2ccccc2)c2nncn2C)n1 [Example 159] | 2.88^[b]
Cn1cnnc1C(=NOCc1cccc(NC(=O)CC(F)(F)F)n1)c1ccccc1 [Example 160] | 2.28^[b]
Cn1ncnc1C(=NOCc1cccc(CN2C(=O)c3ccccc3C2=O)n1)c1ccccc1 [Example 161] | 2.9^[b]
Cn1ncnc1C(=NOCc1cccc(CN)n1)c1ccccc1 [Example 162] | 0.99^[b]
Cc1cccc(C(=NOCc2cccc(N)n2)c2ncnn2C)c1 [Example 164] | 1.08^[b]
Cn1nncc1C(=NOCc1csc(N)n1)c1ccccc1 [Example 165] | 1.29^[b]

SMILES | log p
Cn1ccnc1C(=NOCc1nccc(NC(=O)C(C(=O)Cc2ccccc2)c2ccccc2)n1)c1ccccc1 (stereo not shown) [Example 166] | 2.59^[b]
Cn1cnnc1C(=NOCc1cccc(NC(=O)C(C)(C)C)n1)c1ccccc1 [Example 167] | 2.44^[b]
Cc1nc(C(=NOCc2cccc(NC(=O)C(C)(C)C)n2)c2ccccc2)cs1 [Example 172] | 3.56^[b]
Cn1nc(C(F)(F)F)nc1C(=NOCc1cccc(NC(=O)Cc2ccccc2)n1)c1ccccc1 [Example 175] | 4.24^[b]
Cn1nc(C(F)(F)F)nc1C(=NOCc1cccc(NC(=O)CCc2ccccc2)n1)c1ccccc1 [Example 176] | 4.49^[b]
CC(C)CC(=O)Nc1cccc(CON=C(c2ccccc2)c2nc(C(F)(F)F)nn2C)n1 [Example 177] | 4.24^[b]
Cn1nc(C(F)(F)F)nc1C(=NOCc1cccc(NC(=O)C(C)(C)C)n1)c1ccccc1 [Example 178] | 4.31^[b]
CCCCCOC(=O)Nc1cccc(CON=C(c2ccccc2)c2nc(C(F)(F)F)nn2C)n1 [Example 179] | 5.2^[b]
CC(C)COC(=O)Nc1cccc(CON=C(c2ccccc2)c2nc(C(F)(F)F)nn2C)n1 [Example 180] | 4.78^[b]
Cn1nc(C(F)(F)F)nc1C(=NOCc1cccc(N)n1)c1ccccc1 [Example 181] | 1.97^[b]
CCCCCC(=O)Nc1cccc(CON=C(c2ccccc2)c2nc(C(F)(F)F)nn2C)n1 [Example 182] | 4.67^[b]
Cn1nc(C(F)(F)F)nc1C(=NOCc1cccc(N2C(=O)c3ccccc3C2=O)n1)c1ccccc1 [Example 183] | 3.99^[b]
Cn1nc(C(F)(F)F)nc1C(=NOCc1cccc(NC(=O)C2CCCC2)n1)c1ccccc1 [Example 184] | 4.41^[b]
CC(=O)OCCCCOC(=O)Nc1cccc(CON=C(c2ccccc2)c2nc(C(F)(F)F)nn2C)n1 [Example 185] | 4.11^[b]
Cc1cc(C(F)(F)F)nn1CC(=O)Nc1cccc(CON=C(c2ccccc2)c2nc(C(F)(F)F)nn2C)n1 [Example 186] | 4.31^[b]
CCCCCOC(=O)Nc1cccc(CON=C(c2ccccc2)c2csc(C)n2)n1 [Example 187] | 4.51^[b]
Cn1c(C(=NOCc2cccc(N3C(=O)c4ccccc4C3=O)n2)c2ccccc2)nnc1C(F)(F)F [Example 192] | 3.31^[b]
Cc1ncc(C(=NOCc2cccc(N3C(=O)c4ccccc4C3=O)n2)c2ccccc2)n1C [Example 194] | 1.84^[b]
CCCCCOC(=O)Nc1cccc(CON=C(c2ccccc2)c2csc(C)n2)n1 [Example 195] | 4.92^[b]
CCCCCC(=O)Nc1cccc(CON=C(c2ccccc2)c2nnc(C(F)(F)F)n2C)n1 [Example 196] | 3.94^[b]
CCCCCOC(=O)Nc1cccc(CON=C(c2ccccc2)c2nnc(C(F)(F)F)n2C)n1 [Example 197] | 4.49^[b]
Cn1c(C(=NOCc2cccc(NC(=O)C(C)(C)C)n2)c2ccccc2)nnc1C(F)(F)F [Example 198] | 3.58^[b]
Cn1c(C(=NOCc2cccc(NC(=O)Cc3ccccc3)n2)c2ccccc2)nnc1C(F)(F)F [Example 200] | 3.6^[b]
